Data published in the NIST ThermoML archive (doi:10.1016/j.jct.2011.02.018).

Assay: xn = mol fraction of the nth substance listed
Conditions: 101 kPa, Liquid; for viscosity: Concentric cylinders viscometry; for mass density: Vibrating tube method

COC(C)(C)C [2-methoxy-2-methylpropane] + CCCCCCO
Conditions	mass density, 303.15 K [kg/m3]	mass density, 308.15 K [kg/m3]	viscosity, 303.15 K [mPa·s]	viscosity, 308.15 K [mPa·s]
x1 = 0.0103	811.1	807.46	3.832	3.31
x1 = 0.0204	810.49	806.85	3.714	3.214
x1 = 0.0304	809.9	806.24	3.6	3.12
x1 = 0.0408	809.27	805.6	3.486	3.026
x1 = 0.0495	808.75	805.07	3.395	2.951
x1 = 0.0625	807.96	804.26	3.259	2.839
x1 = 0.0705	807.44	803.74	3.185	2.779
x1 = 0.0799	806.85	803.14	3.09	2.699
x1 = 0.0912	806.14	802.42	2.991	2.621
x1 = 0.0994	805.66	801.92	2.913	2.549
x1 = 0.1508	802.39	798.59	2.493	2.198
x1 = 0.205	798.86	795	2.173	1.892
x1 = 0.2579	795.26	791.32	1.848	1.634
x1 = 0.3	792.3	788.3	1.636	1.468
x1 = 0.3574	788.18	784.11	1.392	1.257
x1 = 0.4012	784.94	780.8	1.239	1.122
x1 = 0.4501	781.24	777.03	1.09	0.9929
x1 = 0.5028	777.12	772.81	0.9538	0.8711
x1 = 0.5637	772.16	767.75	0.8183	0.7502
x1 = 0.598	769.31	764.84	0.7488	0.6862
x1 = 0.6508	764.78	760.21	0.6592	0.6063
x1 = 0.7	760.44	755.77	0.5829	0.5443
x1 = 0.7493	755.96	751.19	0.523	0.481
x1 = 0.7994	751.14	746.31	0.4676	0.4306
x1 = 0.8514	746.09	741.09	0.4172	0.389
x1 = 0.903	740.79	735.68	0.3679	0.3464
x1 = 0.9095	740.12	735	0.3635	0.3436
x1 = 0.9204	738.99	733.83	0.3535	0.3351
x1 = 0.9294	738	732.83	0.3485	0.3282
x1 = 0.9397	736.89	731.69	0.3396	0.3202
x1 = 0.9495	735.83	730.61	0.3326	0.3124
x1 = 0.9589	734.79	729.54	0.3253	0.3083
x1 = 0.969	733.68	728.41	0.3206	0.3023
x1 = 0.9791	732.55	727.25	0.3139	0.2969
x1 = 0.9899	731.33	726.01	0.3069	0.2898
